Reference: patent US8772480B2, “Inhibitors of PI3 kinase and/or mTOR” (priority 2009, dated 2014)

Legend:
[1] = system: phosphorylation of Akt at Serine 473 in U87 MG cells; experiment: cells; settings: Homo sapiens, U-87 MG, 2 h, read-out: U87Cell IC50, pAkt (Ser 473), U87 MG cells, two hours with compound
PI3Kα = PI3Kα (Homo sapiens (Human), UniProt P42336); settings: read-out: PI3Kα AlphaScreen ® Ki
[2] = molecular target: ProfilerPro Kinase Selectivity Assay Kit kinases (Homo sapiens, UniProt P48730); format: biochemical; settings: CK1 delta; 1 μM compound concentration
Protocol: (§1) Compounds were profiled using a LabChip® EZ Reader II platform and a ProfilerPro Kinase Selectivity Assay Kit (Caliper Lifesciences Inc., Hopkinton, Mass.). Compounds were tested at a concentration of 1 M in duplicate, with mean data reported as percent of control (POC).

[3] = molecular target: ProfilerPro Kinase Selectivity Assay Kit kinases (Homo sapiens, UniProt Q15418); format: biochemical; settings: RSK1; 1 μM compound concentration
Protocol: as §1

[4] = molecular target: ProfilerPro Kinase Selectivity Assay Kit kinases (Homo sapiens, UniProt Q16566); format: biochemical; settings: CAMK4; 1 μM compound concentration
Protocol: as §1

[5] = molecular target: ProfilerPro Kinase Selectivity Assay Kit kinases (Homo sapiens, UniProt P31751); format: biochemical; settings: AKT2; 1 μM compound concentration
Protocol: as §1

[6] = molecular target: ProfilerPro Kinase Selectivity Assay Kit kinases (Homo sapiens, UniProt O75116); format: biochemical; settings: ROCK2; 1 μM compound concentration
Protocol: as §1

[7] = molecular target: ProfilerPro Kinase Selectivity Assay Kit kinases (Homo sapiens, UniProt P08581); format: biochemical; settings: cMET; 1 μM compound concentration
Sequence of ProfilerPro Kinase Selectivity Assay Kit kinases (Homo sapiens, UniProt P08581) (P08581 25-1390 limits assumed): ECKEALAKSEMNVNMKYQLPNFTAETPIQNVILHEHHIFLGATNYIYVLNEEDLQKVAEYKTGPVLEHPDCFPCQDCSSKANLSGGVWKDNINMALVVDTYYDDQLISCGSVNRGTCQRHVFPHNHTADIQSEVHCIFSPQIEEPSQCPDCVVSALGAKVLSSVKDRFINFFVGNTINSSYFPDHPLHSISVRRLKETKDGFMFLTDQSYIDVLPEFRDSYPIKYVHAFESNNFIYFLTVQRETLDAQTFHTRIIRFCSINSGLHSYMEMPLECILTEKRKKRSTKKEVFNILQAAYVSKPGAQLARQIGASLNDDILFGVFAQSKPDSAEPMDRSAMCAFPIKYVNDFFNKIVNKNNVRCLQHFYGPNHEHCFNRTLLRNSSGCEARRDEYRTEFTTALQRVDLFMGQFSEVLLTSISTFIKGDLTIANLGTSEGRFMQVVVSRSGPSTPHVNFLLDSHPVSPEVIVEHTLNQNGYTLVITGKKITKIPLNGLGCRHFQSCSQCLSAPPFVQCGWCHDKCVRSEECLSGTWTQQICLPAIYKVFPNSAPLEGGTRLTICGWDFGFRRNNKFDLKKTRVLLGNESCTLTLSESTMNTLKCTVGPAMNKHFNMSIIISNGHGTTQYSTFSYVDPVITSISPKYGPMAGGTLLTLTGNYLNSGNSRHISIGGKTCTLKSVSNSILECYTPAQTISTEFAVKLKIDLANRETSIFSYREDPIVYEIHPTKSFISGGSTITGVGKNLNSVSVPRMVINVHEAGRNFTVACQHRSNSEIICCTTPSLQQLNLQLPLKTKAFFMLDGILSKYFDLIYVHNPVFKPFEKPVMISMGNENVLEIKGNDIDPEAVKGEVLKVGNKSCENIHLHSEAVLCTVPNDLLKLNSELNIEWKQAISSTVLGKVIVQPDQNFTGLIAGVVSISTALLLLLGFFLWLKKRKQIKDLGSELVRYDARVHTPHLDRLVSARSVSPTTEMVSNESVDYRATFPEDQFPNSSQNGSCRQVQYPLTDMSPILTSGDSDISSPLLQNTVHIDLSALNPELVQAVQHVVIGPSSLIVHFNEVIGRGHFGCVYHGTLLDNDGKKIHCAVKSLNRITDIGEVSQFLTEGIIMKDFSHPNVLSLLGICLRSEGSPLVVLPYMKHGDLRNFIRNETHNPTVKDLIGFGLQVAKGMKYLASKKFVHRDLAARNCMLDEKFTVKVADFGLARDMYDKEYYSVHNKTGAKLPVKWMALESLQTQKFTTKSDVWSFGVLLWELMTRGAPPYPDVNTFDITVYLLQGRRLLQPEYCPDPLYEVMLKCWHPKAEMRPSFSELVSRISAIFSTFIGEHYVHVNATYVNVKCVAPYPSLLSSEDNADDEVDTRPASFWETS
Protocol: as §1

[8] = molecular target: ProfilerPro Kinase Selectivity Assay Kit kinases (Homo sapiens, UniProt Q16539); format: biochemical; settings: p38 alpha; 1 μM compound concentration
Sequence of ProfilerPro Kinase Selectivity Assay Kit kinases (Homo sapiens, UniProt Q16539) (Q16539 2-360 limits assumed): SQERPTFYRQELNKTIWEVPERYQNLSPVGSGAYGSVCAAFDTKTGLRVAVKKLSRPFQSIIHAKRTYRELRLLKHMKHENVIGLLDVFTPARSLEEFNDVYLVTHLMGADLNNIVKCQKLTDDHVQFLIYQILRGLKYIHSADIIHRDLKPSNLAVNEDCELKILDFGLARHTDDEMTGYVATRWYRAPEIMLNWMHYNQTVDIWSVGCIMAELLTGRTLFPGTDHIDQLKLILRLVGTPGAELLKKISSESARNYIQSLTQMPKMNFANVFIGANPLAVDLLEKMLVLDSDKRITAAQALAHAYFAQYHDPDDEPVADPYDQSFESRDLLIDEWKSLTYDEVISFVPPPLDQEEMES
Protocol: as §1

[9] = system: ProfilerPro Kinase Selectivity Assay Kit kinases; format: biochemical; settings: 1 μM compound concentration
Protocol: as §1

[10] = molecular target: ProfilerPro Kinase Selectivity Assay Kit kinases (Homo sapiens, UniProt Q8IW41); format: biochemical; settings: PRAK; 1 μM compound concentration
Protocol: as §1

[11] = molecular target: ProfilerPro Kinase Selectivity Assay Kit kinases (Homo sapiens, UniProt P06213); format: biochemical; settings: INSR; 1 μM compound concentration
Protocol: as §1

[12] = molecular target: ProfilerPro Kinase Selectivity Assay Kit kinases (Homo sapiens, UniProt Q13627); format: biochemical; settings: DYRK1a; 1 μM compound concentration
Protocol: as §1

[13] = molecular target: ProfilerPro Kinase Selectivity Assay Kit kinases (Homo sapiens, UniProt P49137); format: biochemical; settings: MAPKAPK2; 1 μM compound concentration
Protocol: as §1

[14] = molecular target: ProfilerPro Kinase Selectivity Assay Kit kinases (Homo sapiens, UniProt P49841); format: biochemical; settings: GSK3 beta; 1 μM compound concentration
Protocol: as §1

[15] = molecular target: ProfilerPro Kinase Selectivity Assay Kit kinases (Homo sapiens, UniProt Q13188); format: biochemical; settings: MST2; 1 μM compound concentration
Protocol: as §1

Sequence of PI3Kα (P42336 whole entry): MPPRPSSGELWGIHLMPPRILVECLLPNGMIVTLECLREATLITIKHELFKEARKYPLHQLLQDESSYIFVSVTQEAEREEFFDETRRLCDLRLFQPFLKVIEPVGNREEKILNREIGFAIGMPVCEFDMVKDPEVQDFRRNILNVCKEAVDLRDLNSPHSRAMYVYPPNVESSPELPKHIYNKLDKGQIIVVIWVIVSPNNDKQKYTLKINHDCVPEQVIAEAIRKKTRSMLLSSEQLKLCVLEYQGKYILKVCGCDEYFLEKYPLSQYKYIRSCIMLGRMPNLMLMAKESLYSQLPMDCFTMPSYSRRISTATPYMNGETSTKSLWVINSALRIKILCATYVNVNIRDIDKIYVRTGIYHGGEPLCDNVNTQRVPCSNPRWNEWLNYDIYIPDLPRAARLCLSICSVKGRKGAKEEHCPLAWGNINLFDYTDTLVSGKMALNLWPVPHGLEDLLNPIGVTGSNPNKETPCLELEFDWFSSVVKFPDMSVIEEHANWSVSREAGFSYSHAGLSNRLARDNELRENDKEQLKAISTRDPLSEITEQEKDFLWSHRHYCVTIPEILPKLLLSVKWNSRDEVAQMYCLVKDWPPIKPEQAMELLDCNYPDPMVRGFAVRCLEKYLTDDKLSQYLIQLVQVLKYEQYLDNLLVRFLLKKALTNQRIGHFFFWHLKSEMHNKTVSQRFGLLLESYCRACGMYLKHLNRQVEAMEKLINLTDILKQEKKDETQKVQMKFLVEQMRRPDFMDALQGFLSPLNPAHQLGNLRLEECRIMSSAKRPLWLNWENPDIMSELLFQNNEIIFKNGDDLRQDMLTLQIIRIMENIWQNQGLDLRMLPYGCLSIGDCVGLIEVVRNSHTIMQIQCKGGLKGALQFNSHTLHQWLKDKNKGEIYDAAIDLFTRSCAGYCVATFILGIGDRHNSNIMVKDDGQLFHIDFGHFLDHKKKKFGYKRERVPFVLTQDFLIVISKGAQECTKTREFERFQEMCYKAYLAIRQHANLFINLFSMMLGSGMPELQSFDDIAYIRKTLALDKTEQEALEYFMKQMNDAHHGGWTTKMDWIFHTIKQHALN
Sequence of PI3Kα (P27986 whole entry partner): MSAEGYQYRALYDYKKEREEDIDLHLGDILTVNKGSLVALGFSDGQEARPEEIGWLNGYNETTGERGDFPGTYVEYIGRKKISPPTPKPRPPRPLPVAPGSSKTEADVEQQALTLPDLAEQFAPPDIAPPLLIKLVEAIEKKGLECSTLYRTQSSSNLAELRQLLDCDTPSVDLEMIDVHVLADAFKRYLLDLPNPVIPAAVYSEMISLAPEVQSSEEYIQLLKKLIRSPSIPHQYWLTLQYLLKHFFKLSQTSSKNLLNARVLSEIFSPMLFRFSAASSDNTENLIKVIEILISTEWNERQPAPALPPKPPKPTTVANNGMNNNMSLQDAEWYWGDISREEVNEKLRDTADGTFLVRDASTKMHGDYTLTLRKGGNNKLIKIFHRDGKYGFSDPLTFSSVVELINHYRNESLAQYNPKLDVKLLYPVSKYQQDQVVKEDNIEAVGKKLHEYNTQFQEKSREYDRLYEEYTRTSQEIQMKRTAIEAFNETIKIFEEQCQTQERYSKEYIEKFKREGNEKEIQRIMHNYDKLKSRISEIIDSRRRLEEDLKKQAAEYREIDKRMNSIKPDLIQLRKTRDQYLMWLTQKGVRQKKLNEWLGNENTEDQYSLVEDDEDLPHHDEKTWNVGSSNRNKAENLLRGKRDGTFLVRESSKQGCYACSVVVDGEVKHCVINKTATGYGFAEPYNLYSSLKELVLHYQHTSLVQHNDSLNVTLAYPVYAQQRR

Structure (SMILES): Cc1cnc(Nc2cccc3[nH]ncc23)c(-c2nc(C)nc(N)n2)c1 [Example 47, N-(3-(4-Amino-6-Methyl-1,3,5-Triazin-2-yl)-5-Methylpyridine-2-yl)-1H-Indazol-4-Amine]
- IC50 [1]: 197 nM
- Ki (PI3Kα): 36 nM
- POC (Percent of control) CK1 delta [2]: 69 POC
- POC (Percent of control) RSK1 [3]: 105 POC
- POC (Percent of control) CAMK4 [4]: 91 POC
- POC (Percent of control) AKT2 [5]: 74 POC
- POC (Percent of control) ROCK2 [6]: 93 POC
- POC (Percent of control) cMET [7]: 102 POC
- POC (Percent of control) p38 alpha [8]: 91 POC
- POC (Percent of control) AMPK [9]: 87 POC
- POC (Percent of control) CAMK2 [9]: 126 POC
- POC (Percent of control) PKC beta2 [9]: 100 POC
- POC (Percent of control) TAK1 [9]: 106 POC
- POC (Percent of control) PRAK [10]: 103 POC
- POC (Percent of control) INSR [11]: 99 POC
- POC (Percent of control) DYRK1a [12]: 82 POC
- POC (Percent of control) MAPKAPK2 [13]: 101 POC
- POC (Percent of control) GSK3 beta [14]: 97 POC
- POC (Percent of control) MST2 [15]: 101 POC

Structure (SMILES): CCc1cnc(Nc2ccc(OC)nc2)c(-c2nc(C)nc3[nH]cnc23)c1 [Example 74, 5-ethyl-N-(6-methoxypyridin-3-yl)-3-(2-methyl-9H-purin-6-yl)pyridin-2-amine]
- IC50 [1]: 89 nM
- Ki (PI3Kα): 11 nM
- POC (Percent of control) CK1 delta [2]: 97 POC
- POC (Percent of control) RSK1 [3]: 100 POC
- POC (Percent of control) CAMK4 [4]: 95 POC
- POC (Percent of control) AKT2 [5]: 96 POC
- POC (Percent of control) ROCK2 [6]: 101 POC
- POC (Percent of control) cMET [7]: 102 POC
- POC (Percent of control) p38 alpha [8]: 101 POC
- POC (Percent of control) AMPK [9]: 100 POC
- POC (Percent of control) CAMK2 [9]: 106 POC
- POC (Percent of control) PKC beta2 [9]: 94 POC
- POC (Percent of control) TAK1 [9]: 98 POC
- POC (Percent of control) PRAK [10]: 97 POC
- POC (Percent of control) INSR [11]: 96 POC
- POC (Percent of control) DYRK1a [12]: 100 POC
- POC (Percent of control) MAPKAPK2 [13]: 100 POC
- POC (Percent of control) GSK3 beta [14]: 100 POC
- POC (Percent of control) MST2 [15]: 98 POC

Structure (SMILES): Cc1nc(N)nc(-c2cc(CN3CCN(S(C)(=O)=O)CC3)cnc2Nc2cccc(O)c2)n1 [Example 30, 3-(3-(4-Amino-6-Methyl-1,3,5-Triazin-2-yl)-5-((4-(Methyl Sulfonyl)Piperazin-1-yl)Methyl)Pyridin-2-Ylamino)Phenol]
- IC50 [1]: 30 nM
- Ki (PI3Kα): 8 nM
- POC (Percent of control) CK1 delta [2]: 95 POC
- POC (Percent of control) RSK1 [3]: 103 POC
- POC (Percent of control) CAMK4 [4]: 94 POC
- POC (Percent of control) AKT2 [5]: 105 POC
- POC (Percent of control) ROCK2 [6]: 98 POC
- POC (Percent of control) cMET [7]: 101 POC
- POC (Percent of control) p38 alpha [8]: 99 POC
- POC (Percent of control) AMPK [9]: 91 POC
- POC (Percent of control) CAMK2 [9]: 103 POC
- POC (Percent of control) PKC beta2 [9]: 94 POC
- POC (Percent of control) TAK1 [9]: 99 POC
- POC (Percent of control) PRAK [10]: 112 POC
- POC (Percent of control) INSR [11]: 102 POC
- POC (Percent of control) DYRK1a [12]: 93 POC
- POC (Percent of control) MAPKAPK2 [13]: 103 POC
- POC (Percent of control) GSK3 beta [14]: 104 POC
- POC (Percent of control) MST2 [15]: 98 POC

Structure (SMILES): c1cnc(Nc2cccc3[nH]ccc23)c(-c2ncnc3[nH]cnc23)c1 [Example 19, N-(3-(9H-Purin-6-yl)Pyridin-2-yl)-1H-Indol-4-Amine]
- IC50 [1]: 2370 nM
- Ki (PI3Kα): 5620 nM
- POC (Percent of control) CK1 delta [2]: 72 POC
- POC (Percent of control) RSK1 [3]: 87 POC
- POC (Percent of control) CAMK4 [4]: 77 POC
- POC (Percent of control) AKT2 [5]: 110 POC
- POC (Percent of control) ROCK2 [6]: 104 POC
- POC (Percent of control) cMET [7]: 89 POC
- POC (Percent of control) p38 alpha [8]: 86 POC
- POC (Percent of control) AMPK [9]: 57 POC
- POC (Percent of control) CAMK2 [9]: 84 POC
- POC (Percent of control) PKC beta2 [9]: 94 POC
- POC (Percent of control) TAK1 [9]: 90 POC
- POC (Percent of control) PRAK [10]: 84 POC
- POC (Percent of control) INSR [11]: 88 POC
- POC (Percent of control) DYRK1a [12]: 66 POC
- POC (Percent of control) MAPKAPK2 [13]: 90 POC
- POC (Percent of control) GSK3 beta [14]: 79 POC
- POC (Percent of control) MST2 [15]: 82 POC

Structure (SMILES): COc1ccc(Nc2ncc(Cc3ccc(S(C)(=O)=O)cc3)cc2-c2nc(C)nc3[nH]cnc23)cn1 [Example 103, N-(6-methoxypyridin-3-yl)-3-(2-methyl-9H-purin-6-yl)-5-(4-(methylsulfonyl)benzyl)pyridin-2-amine]
- IC50 [1]: 28 nM
- Ki (PI3Kα): 2 nM
- POC (Percent of control) CK1 delta [2]: 120 POC
- POC (Percent of control) RSK1 [3]: 100 POC
- POC (Percent of control) CAMK4 [4]: 95 POC
- POC (Percent of control) AKT2 [5]: 89 POC
- POC (Percent of control) ROCK2 [6]: 106 POC
- POC (Percent of control) cMET [7]: 94 POC
- POC (Percent of control) p38 alpha [8]: 92 POC
- POC (Percent of control) AMPK [9]: 102 POC
- POC (Percent of control) CAMK2 [9]: 95 POC
- POC (Percent of control) PKC beta2 [9]: 100 POC
- POC (Percent of control) TAK1 [9]: 115 POC
- POC (Percent of control) PRAK [10]: 103 POC
- POC (Percent of control) INSR [11]: 95 POC
- POC (Percent of control) DYRK1a [12]: 83 POC
- POC (Percent of control) MAPKAPK2 [13]: 100 POC
- POC (Percent of control) GSK3 beta [14]: 96 POC
- POC (Percent of control) MST2 [15]: 98 POC

Structure (SMILES): Cc1cnc(Nc2cccc3[nH]ccc23)c(-c2nc(C)nc(N)n2)c1 [Example 46, N-(3-(4-Amino-6-Methyl-1,3,5-Triazin-2-yl)-5-Methylpyridin-2-yl)-1H-Indol-4-Amine]
- IC50 [1]: 79 nM
- Ki (PI3Kα): 130 nM
- POC (Percent of control) CK1 delta [2]: 91 POC
- POC (Percent of control) RSK1 [3]: 100 POC
- POC (Percent of control) CAMK4 [4]: 96 POC
- POC (Percent of control) AKT2 [5]: 110 POC
- POC (Percent of control) ROCK2 [6]: 94 POC
- POC (Percent of control) cMET [7]: 104 POC
- POC (Percent of control) p38 alpha [8]: 96 POC
- POC (Percent of control) AMPK [9]: 91 POC
- POC (Percent of control) CAMK2 [9]: 105 POC
- POC (Percent of control) PKC beta2 [9]: 96 POC
- POC (Percent of control) TAK1 [9]: 98 POC
- POC (Percent of control) PRAK [10]: 111 POC
- POC (Percent of control) INSR [11]: 98 POC
- POC (Percent of control) DYRK1a [12]: 96 POC
- POC (Percent of control) MAPKAPK2 [13]: 98 POC
- POC (Percent of control) GSK3 beta [14]: 95 POC
- POC (Percent of control) MST2 [15]: 96 POC
